{"source": "paper PMC6198068", "about": "“Discovery of a Novel Nav1.7 Inhibitor From Cyriopagopus albostriatus Venom With Potent Analgesic Efficacy” (Frontiers in Pharmacology, 2018)", "format_in_all_cases": "cell-based", "key": {"Nav1.7": {"target": "T1, Nav1.7 (Homo sapiens, UniProt Q15858)", "T1 construct": "expressed in transfected cells; host or cells: HEK293T", "T1 sequence (O60939 30-215)": "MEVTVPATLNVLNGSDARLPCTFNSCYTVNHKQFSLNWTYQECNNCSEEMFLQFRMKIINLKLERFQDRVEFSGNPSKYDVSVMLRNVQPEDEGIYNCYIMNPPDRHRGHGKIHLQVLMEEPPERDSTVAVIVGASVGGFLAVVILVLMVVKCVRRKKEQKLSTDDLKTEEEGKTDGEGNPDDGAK", "T1 sequence (Q15858 other isoform, or with tags, fused parts or gaps)": "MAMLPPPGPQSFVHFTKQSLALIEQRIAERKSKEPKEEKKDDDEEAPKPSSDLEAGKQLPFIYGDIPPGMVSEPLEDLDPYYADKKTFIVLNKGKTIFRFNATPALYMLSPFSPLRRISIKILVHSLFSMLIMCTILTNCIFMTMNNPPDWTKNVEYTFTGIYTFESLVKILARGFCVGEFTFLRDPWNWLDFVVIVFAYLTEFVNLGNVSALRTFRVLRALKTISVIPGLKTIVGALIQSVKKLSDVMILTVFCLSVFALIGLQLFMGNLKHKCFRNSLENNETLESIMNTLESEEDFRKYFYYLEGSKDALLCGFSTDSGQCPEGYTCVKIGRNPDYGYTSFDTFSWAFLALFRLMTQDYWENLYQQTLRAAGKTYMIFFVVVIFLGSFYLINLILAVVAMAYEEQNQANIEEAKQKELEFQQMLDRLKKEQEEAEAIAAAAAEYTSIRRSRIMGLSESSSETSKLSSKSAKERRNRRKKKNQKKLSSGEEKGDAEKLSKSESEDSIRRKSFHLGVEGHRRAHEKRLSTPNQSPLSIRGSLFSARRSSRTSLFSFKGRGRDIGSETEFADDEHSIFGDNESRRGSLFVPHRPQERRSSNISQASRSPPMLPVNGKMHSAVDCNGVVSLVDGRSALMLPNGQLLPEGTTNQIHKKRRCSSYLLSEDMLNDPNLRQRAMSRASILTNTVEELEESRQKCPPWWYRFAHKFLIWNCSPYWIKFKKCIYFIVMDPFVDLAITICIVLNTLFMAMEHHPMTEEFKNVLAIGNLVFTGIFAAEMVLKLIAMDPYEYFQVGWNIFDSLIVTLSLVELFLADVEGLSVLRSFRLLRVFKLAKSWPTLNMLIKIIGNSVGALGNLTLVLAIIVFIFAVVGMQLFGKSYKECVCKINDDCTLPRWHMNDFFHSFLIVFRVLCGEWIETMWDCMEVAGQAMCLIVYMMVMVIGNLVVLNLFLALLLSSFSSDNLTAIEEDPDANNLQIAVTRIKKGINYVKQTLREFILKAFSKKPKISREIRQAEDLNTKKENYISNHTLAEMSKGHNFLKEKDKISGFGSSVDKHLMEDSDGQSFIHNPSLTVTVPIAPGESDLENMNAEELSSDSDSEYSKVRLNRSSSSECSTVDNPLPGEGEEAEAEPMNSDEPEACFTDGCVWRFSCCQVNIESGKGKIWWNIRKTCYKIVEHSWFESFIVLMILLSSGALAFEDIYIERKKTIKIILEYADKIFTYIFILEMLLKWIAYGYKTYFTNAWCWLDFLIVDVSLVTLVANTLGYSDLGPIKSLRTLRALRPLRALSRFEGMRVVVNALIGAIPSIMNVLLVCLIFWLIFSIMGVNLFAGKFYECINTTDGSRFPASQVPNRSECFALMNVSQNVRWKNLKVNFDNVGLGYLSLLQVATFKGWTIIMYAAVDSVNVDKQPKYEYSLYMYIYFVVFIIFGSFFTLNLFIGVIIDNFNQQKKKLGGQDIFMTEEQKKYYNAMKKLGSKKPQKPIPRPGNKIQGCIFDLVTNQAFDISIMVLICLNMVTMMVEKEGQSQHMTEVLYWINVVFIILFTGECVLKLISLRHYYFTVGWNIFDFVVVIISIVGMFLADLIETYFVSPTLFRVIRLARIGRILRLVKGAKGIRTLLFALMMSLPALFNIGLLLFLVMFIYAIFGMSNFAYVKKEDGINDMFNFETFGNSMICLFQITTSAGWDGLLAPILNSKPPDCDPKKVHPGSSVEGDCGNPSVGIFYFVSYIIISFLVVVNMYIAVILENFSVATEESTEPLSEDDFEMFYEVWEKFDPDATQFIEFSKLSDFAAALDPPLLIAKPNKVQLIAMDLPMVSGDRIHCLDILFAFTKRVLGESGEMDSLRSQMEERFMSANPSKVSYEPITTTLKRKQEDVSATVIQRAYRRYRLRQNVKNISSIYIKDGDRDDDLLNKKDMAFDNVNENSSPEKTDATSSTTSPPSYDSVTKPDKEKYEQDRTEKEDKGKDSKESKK", "T1 sequence (Q07699 19-218, further chain)": "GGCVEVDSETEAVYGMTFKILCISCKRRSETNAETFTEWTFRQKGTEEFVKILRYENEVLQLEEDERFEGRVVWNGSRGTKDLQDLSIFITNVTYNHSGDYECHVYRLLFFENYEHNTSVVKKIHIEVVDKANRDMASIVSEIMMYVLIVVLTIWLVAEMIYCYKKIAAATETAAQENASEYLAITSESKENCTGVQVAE", "experiment": "Steady-state fast inactivation and fast inactivation time constants of Nav1.7", "details": "0.2 μM", "excerpt": "(§1) The cDNA genes encoding rat Nav1.4 and human Nav1.7 were subcloned into vectors pRGB4 and pcDNA3.1-mod, respectively. Mutations of rNav1.4 (N655D, Q657E, and N655D/Q657E) and hNav1.7 (D816N, E818Q, and D816N/E818Q) were constructed using the Gene Tailor Site-Directed Mutagenesis system (Invitrogen, Carlsbad, CA, United States), according to the manufacturer’s instructions. Nav1.2–Nav1.7 and mutant plasmids together with eGFP were transiently transfected into HEK293T cells while Nav1.8 together with eGFP was transiently transfected into ND7/23 cells by Lipofectamine 2000 (Invitrogen, Carlsbad, CA, United States). […] Cells with green fluorescent protein fluorescence were selected for whole-cell patch-clamp recordings 24 h after transfection.\n(§2) Whole-cell patch-clamp recordings were performed at room temperature (20–25°C) using an EPC 10 USB Patch Clamp Amplifier (HEKA, Elektronik, Lambrecht, Germany). […] Data was analyzed by software Igo Pro 6.10A (WaveMetrics, Lake Oswego, OR, United States), SigmaPlot 10.0 (Sigma-Aldrich, St. Louis, MO, United States), OriginPro 8 (OriginLab Corp., Northampton, MA, United States), and GraphPad Prism 5 (GraphPad Software, San Diego, CA, United States). […]\nFast inactivation time constants were calculated by fitting current decay traces with a single exponential function using the I–V protocol described above. […]"}, "Nav1.6": {"target": "T2, Nav1.6 (Homo sapiens, UniProt Q9UQD0)", "T2 construct": "expressed in transfected cells; host or cells: HEK293T", "experiment": "Whole-cell patch-clamp, Nav1.6 in HEK293T cells", "details": "mean ± SEM", "excerpt": "as §1, with “States). Additionally, plasmids β1- and β2-eGFP encoding the human β1 and β2 subunits, respectively, were co-transfected with those encoding WT Nav1.7 and Nav1.7 mutations in HEK293T cells.” for “States).”\nas §2"}, "Nav1.7/D816N": {"target": "T3, Nav1.7/D816N (Homo sapiens, UniProt Q15858, D827N)", "T3 construct": "expressed in transfected cells; host or cells: HEK293T", "T3 sequence (O60939 30-215)": "as the sequence (O60939 30-215) above", "T3 sequence (Q07699 19-218, further chain)": "as the sequence (Q07699 19-218, further chain) above", "T3 sequence (Q15858 other isoform, or with tags, fused parts or gaps D816N)": "as the sequence (Q15858 other isoform, or with tags, fused parts or gaps) above, with D816N counted along it", "experiment": "Time course of Nav1.7/D816N inhibition and recovery upon washing", "details": "1 μM, n = 4", "excerpt": "as §1, with “States). Additionally, plasmids β1- and β2-eGFP encoding the human β1 and β2 subunits, respectively, were co-transfected with those encoding WT Nav1.7 and Nav1.7 mutations in HEK293T cells.” for “States).”\nas §2"}}, "note": "Where a SMILES comes first, the peptide text is derived from it. Bridges are numbered along the chain shown (N, C = ends).", "data": [{"smiles": "CC(C)C[C@H](NC(=O)[C@H](CC(=O)O)NC(=O)[C@H](Cc1ccc(O)cc1)NC(=O)[C@H](CCCCN)NC(=O)[C@@H]1CSSC[C@@H]2NC(=O)[C@H](CCCCN)NC(=O)[C@H](CC(=O)O)NC(=O)[C@H](CC(N)=O)NC(=O)[C@H](CO)NC(=O)[C@@H]3CCCN3C(=O)[C@H](CC(N)=O)NC(=O)[C@@H]3CSSC[C@H](NC(=O)[C@H](C(C)C)NC(=O)[C@H](CC(C)C)NC(=O)[C@H](CO)NC(=O)[C@H](CO)NC(=O)[C@H](CO)NC(=O)[C@H](CCCCN)NC(=O)[C@H](CSSC[C@H](NC(=O)[C@H](C)N)C(=O)N[C@@H](CC(C)C)C(=O)NCC(=O)N[C@@H](Cc4ccccc4)C(=O)NCC(=O)N[C@@H](CCC(=O)O)C(=O)N[C@@H](CCCCN)C(=O)N3)NC2=O)C(=O)N[C@@H](CO)C(=O)N[C@@H](CCC(N)=O)C(=O)N[C@@H](CCCCN)C(=O)N[C@@H](Cc2c[nH]cn2)C(=O)N[C@@H](CCCCN)C(=O)N[C@@H](Cc2c[nH]c3ccccc23)C(=O)N1)C(=O)O", "note": "[Ca2a] (H-ACLGFGEKCNPSNDKCCKSSSLVCSQKHKWCKYDL-OH; disulfide 2-17, 9-24, 16-31 (inferred); N-terminus and C-terminus assumed)", "values": [{"measurement": "fast inactivation time constants of Nav1.7", "setting": "Nav1.7; between −15 and 10 mV, P > 0.05, two-way ANOVA, n = 6–11 cells", "result": "did not alter the inactivation time constants"}, {"measurement": "half-inactivation voltage of Nav1.7 (steady-state fast inactivation)", "setting": "Nav1.7; control −70.2 ± 0.8 mV, 500-ms prepulse, mean ± SEM, n = 10", "result": "−70.7 ± 1.1", "unit": "mV"}, {"measurement": "decrease of Nav1.6 current amplitude", "setting": "Nav1.6; 1 μM, 50 ms to −10 mV from −100 mV", "result": "78.7 ± 2.9", "unit": "%"}, {"measurement": "IC50", "setting": "Nav1.6; whole-cell patch-clamp, n = 4–7 cells per data point", "result": "314 ± 6.3", "unit": "nM"}, {"measurement": "recovery of Nav1.7/D816N current on washout", "setting": "Nav1.7/D816N; extended washout", "result": "did not recover"}, {"measurement": "τon, Nav1.7/D816N", "setting": "Nav1.7/D816N", "result": "18.4 ± 1.3", "unit": "s"}]}]}
